Measured values taken from PubChem BioAssay (NCI).
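GI50 is the concentration that inhibits growth by half. TGI: concentration producing complete growth inhibition.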

Tests used:
Assay in all cases: NCI anticancer screen, dose series, 384-well format
[1] = tested on: MCF7 breast
[2] = tested on: OVCAR-3 ovarian
[3] = tested on: MALME-3M melanoma
[4] = tested on: SK-MEL-28 melanoma
[5] = tested on: RPMI-8226 leukemia
[6] = tested on: RXF 393 renal
[7] = tested on: NCI-H23 lung
[8] = tested on: MDA-MB-231 breast
[9] = tested on: PC-3 prostate
[10] = tested on: IGROV1 ovarian
[11] = tested on: TK-10 renal
[12] = tested on: OVCAR-5 ovarian
[13] = tested on: EKVX NSCLC
[14] = tested on: HCT-15 colon
[15] = tested on: HL-60(TB) leukemia
[16] = tested on: 786-0 renal
[17] = tested on: CAKI-1 renal
[18] = tested on: UO-31 renal
[19] = tested on: SK-MEL-5 melanoma
[20] = tested on: SK-MEL-2 melanoma
[21] = tested on: NCI-H522 lung
[22] = tested on: BT-549 breast
[23] = tested on: SF-539 CNS
[24] = tested on: HCT-116 colon
[25] = tested on: SK-OV-3 ovarian
[26] = tested on: HOP-92 NSCLC

## COc1ccccc1S(=O)(=O)Nc1ccc2c(c1)CN(C)C(=O)N2
[1]
  GI50: 35.9 nM
  TGI: 12300 nM
[2]
  GI50: 12 nM
  TGI: 33.2 nM
[3]
  GI50: < 10 nM
  TGI: > 100000 nM
[4]
  GI50: < 10 nM
  TGI: > 100000 nM
[5]
  GI50: 19.5 nM
  TGI: 37.3 nM
[6]
  GI50: < 10 nM
  TGI: < 10 nM
[7]
  GI50: 16.3 nM
  TGI: 53.7 nM
[8]
  GI50: 32.4 nM
  TGI: > 100000 nM
[9]
  GI50: < 10 nM
  TGI: > 100000 nM
[10]
  GI50: 22.5 nM
  TGI: 73600 nM
[11]
  GI50: < 10 nM
  TGI: > 100000 nM
[12]
  GI50: 26 nM
  TGI: > 100000 nM
[13]
  GI50: 20.5 nM
  TGI: > 100000 nM
[14]
  GI50: 12.6 nM
  TGI: 46.9 nM
[15]
  GI50: < 10 nM
  TGI: 13.1 nM
[16]
  GI50: 16.7 nM
  TGI: 15900 nM
[17]
  GI50: < 10 nM
  TGI: > 100000 nM
[18]
  GI50: 20.6 nM
  TGI: > 100000 nM
[19]
  GI50: < 10 nM
  TGI: 12.9 nM
[20]
  GI50: 18.1 nM
  TGI: 39.3 nM
[21]
  GI50: < 10 nM
  TGI: < 10 nM
[22]
  GI50: < 10 nM
  TGI: 32.4 nM
[23]
  GI50: 14.4 nM
  TGI: 37.6 nM
[24]
  GI50: 14.5 nM
  TGI: 77.3 nM
[25]
  GI50: < 10 nM
  TGI: 7040 nM
[26]
  GI50: < 10 nM
